Test systems include 786-0; A498; A549; CCRF-CEM; COLO 205; DU-145; HOP-62; Hs-578T; MDA-MB-435; MOLT-4; NCI-H23; OVCAR-3; OVCAR-4; OVCAR-8; RXF 393; SN12C; SW-620; TK-10; UACC-257; UACC-62.
What all share (assay): NCI anticancer screen, dose series, 48 h

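Step 1: Grow cells in 96-well plates. Step 2: Expose to compound for 48 hours at 5 concentrations. Step 3: Interpolate endpoints linearly; if unreached, use highest concentration. GI50: concentration for 50% inhibition of growth.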 Calls of active or inactive are those of the source. Rule as the data show it: active = GI50 up to about 1.1 µM and inactive = higher.

As for `Cc1ccc2c(c1)C(=C(C#N)C#N)CCCS2(=O)=O`, the GI50 in the assay on 786-0, with A498, in the assay on A549, with CCRF-CEM, in the assay with COLO 205 and in the assay on DU-145 was > 100 µM (inactive) throughout. The GI50 in the assay on HOP-62, in the assay on Hs-578T, with MDA-MB-435, with MOLT-4, in the assay on NCI-H23 and in the assay on OVCAR-3 was > 100 µM (inactive) in each case. The GI50 with OVCAR-4, in the assay with OVCAR-8, with RXF 393, with SN12C, with SW-620 and with TK-10 was > 100 µM (inactive) throughout. Besides, the GI50 in the assay on UACC-257 and in the assay on UACC-62 was > 100 µM (inactive) in each case.
On to `O=C(/C(=C/c1cccs1)c1ccccc1)c1ccccc1`, for which the GI50 in the assay with 786-0 was 26.2 µM (inactive); in the assay with A498 it was > 100 µM (inactive); in the assay on A549, 54.2 µM (inactive); with CCRF-CEM, > 100 µM (inactive); with COLO 205, > 100 µM (inactive); in the assay with DU-145 it was > 100 µM (inactive). The GI50 is 7.21 µM (inactive) with HOP-62; > 100 µM (inactive) in the assay on Hs-578T; > 100 µM (inactive) in the assay with MDA-MB-435; 82.4 µM (inactive) with MOLT-4; 76.6 µM (inactive) in the assay with NCI-H23; > 100 µM (inactive) with OVCAR-3. Also, the GI50 with OVCAR-4 was 35.2 µM (inactive); in the assay with OVCAR-8 it was > 100 µM (inactive); in the assay with RXF 393 it was 4.99 µM (inactive); in the assay on SN12C, 82.2 µM (inactive); in the assay with SW-620, > 100 µM (inactive); with TK-10, > 100 µM (inactive). In addition, the GI50 in the assay on UACC-257 and with UACC-62 was > 100 µM (inactive) throughout.
For `O/N=C(/C(Cl)=C(Cl)Cl)C(Cl)Cl`, the GI50 in the assay with 786-0 was 18.7 µM (inactive); with A498, > 100 µM (inactive); in the assay on A549 it was > 100 µM (inactive); in the assay with CCRF-CEM it was 12.4 µM (inactive); with COLO 205 it was 20.7 µM (inactive); in the assay with DU-145, 29.6 µM (inactive). Besides, the GI50 was 23.3 µM (inactive) in the assay with HOP-62; 19.1 µM (inactive) in the assay with Hs-578T; 18.2 µM (inactive) in the assay on MDA-MB-435; 15.9 µM (inactive) with MOLT-4; 14.9 µM (inactive) with NCI-H23; 19.6 µM (inactive) with OVCAR-3. Besides, the GI50 in the assay with OVCAR-4 is 16.7 µM (inactive); in the assay with OVCAR-8, 23.9 µM (inactive); in the assay on RXF 393, 16.3 µM (inactive); in the assay on SN12C, 18.1 µM (inactive); in the assay on SW-620 it was 20.4 µM (inactive); in the assay with TK-10, 18.3 µM (inactive). Further, the GI50 with UACC-257 was 19.6 µM (inactive); in the assay on UACC-62, 24.7 µM (inactive).
Turning to `CCOC(=O)CCC(NC(=O)c1ccc(Nc2nc3cc(C(F)(F)F)ccc3nc2-c2ccccc2)cc1)C(=O)OCC` (stereo not given), the GI50 with 786-0 was 29.6 µM (inactive); with A498, 5.35 µM (inactive); in the assay with A549 it was > 100 µM (inactive); in the assay with CCRF-CEM, 27.8 µM (inactive); in the assay on COLO 205 it was 22.4 µM (inactive); in the assay on DU-145, 24.5 µM (inactive). Further, the GI50 with HOP-62 is > 100 µM (inactive); in the assay on Hs-578T, 19.7 µM (inactive); with MDA-MB-435 it was 28.8 µM (inactive); in the assay with MOLT-4, 16.9 µM (inactive); in the assay on NCI-H23, 20.7 µM (inactive); with OVCAR-3 it was > 100 µM (inactive). Also, the GI50 with OVCAR-4 is 21.9 µM (inactive); in the assay with OVCAR-8, 20.6 µM (inactive); in the assay on RXF 393, > 100 µM (inactive); with SN12C it was 19.3 µM (inactive); in the assay with SW-620, 30.5 µM (inactive); with TK-10, 19.6 µM (inactive). The GI50 was 22.8 µM (inactive) with UACC-257 and 13.3 µM (inactive) in the assay on UACC-62.
Turning to `CCCCCCc1nn2c(-c3ccncc3)nnc2s1`, the GI50 in the assay with 786-0, in the assay on A498, in the assay on A549, in the assay on CCRF-CEM, with COLO 205 and in the assay on DU-145 was > 10 µM (inactive) each time. Besides, the GI50 in the assay on HOP-62, with Hs-578T, in the assay on MDA-MB-435, in the assay with MOLT-4, with NCI-H23 and in the assay on OVCAR-3 was > 10 µM (inactive) in each case. The GI50 in the assay on OVCAR-4, in the assay on OVCAR-8, with RXF 393, in the assay with SN12C, in the assay with SW-620 and in the assay on TK-10 was > 10 µM (inactive) throughout. Moreover, the GI50 in the assay on UACC-257 and in the assay on UACC-62 was > 10 µM (inactive) throughout.
`CN(C)CCCn1nc(N)c2nc3cc(Cl)ccc3nc21`: the GI50 was 50.7 µM (inactive) with 786-0; 52.1 µM (inactive) in the assay on A498; 37.1 µM (inactive) in the assay on A549; 31 µM (inactive) in the assay on CCRF-CEM; 33 µM (inactive) in the assay with COLO 205; 54.8 µM (inactive) in the assay with DU-145. Moreover, the GI50 in the assay with HOP-62 is 55.3 µM (inactive); in the assay with Hs-578T, 41.4 µM (inactive); in the assay on MDA-MB-435, 34 µM (inactive); in the assay with MOLT-4, > 50.4 µM (inactive); in the assay with NCI-H23 it was 81.8 µM (inactive); in the assay with OVCAR-3, 99.8 µM (inactive). Moreover, the GI50 in the assay on OVCAR-4 is > 100 µM (inactive); in the assay with OVCAR-8 it was 40.2 µM (inactive); in the assay with RXF 393, 30.6 µM (inactive); in the assay with SN12C, 59.8 µM (inactive); in the assay with SW-620 it was 36.2 µM (inactive); in the assay with TK-10 it was 54.7 µM (inactive). For the same compound, the GI50 in the assay on UACC-257 is 24.5 µM (inactive); in the assay on UACC-62 it was 20.7 µM (inactive).
Consider `c1ccc2cc(CNCCCCNCCCNCc3ccc4ccccc4c3)ccc2c1`, for which the GI50 with 786-0 is 0.423 µM (active); in the assay on A498, 1.99 µM (inactive); with A549, 1.62 µM (inactive); in the assay on CCRF-CEM, 0.351 µM (active); in the assay on COLO 205, 0.277 µM (active); with DU-145, 1.27 µM (inactive). For the same compound, the GI50 in the assay with HOP-62 was 1.61 µM (inactive); in the assay with Hs-578T, 0.167 µM (active); with MDA-MB-435 it was 1.45 µM (inactive); in the assay with MOLT-4, 0.256 µM (active); in the assay with NCI-H23 it was 1.8 µM (inactive); in the assay with OVCAR-3, 1.6 µM (inactive). Moreover, the GI50 in the assay on OVCAR-4 is 1.6 µM (inactive); in the assay on OVCAR-8 it was 1.69 µM (inactive); in the assay on RXF 393, 1.49 µM (inactive); in the assay with SN12C, 0.733 µM (active); in the assay on SW-620, 0.324 µM (active); with TK-10, 1.75 µM (inactive). The GI50 in the assay on UACC-257 was 1.88 µM (inactive); in the assay with UACC-62, 1.75 µM (inactive).

Values taken from ChEMBL document CHEMBL1201862, “PubChem BioAssay data set” (2004).
